Reference: US12448394B2, “Heterocyclic pyrazole derivatives as type III receptor tyrosine kinase inhibitors” (DEVELOPMENT CENTER FOR BIOTECHNOLOGY, priority 2019, dated 2025)

How the values were obtained:
[1] = tested on: Molm-14 human acute myeloid leukemia cell with FLT3-ITD mutation; assay: Molm-14 cell proliferation assay (CellTiter 96); format: cell-based; conditions: Homo sapiens; Molm-14 cells, 72 hours treatment, CellTiter96; read-out: anti-proliferation activity Molm-14 (FLT3-ITD), IC50 ranking
Method in brief: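 Molm-14 (FLT3-ITD AML) cells in RPMI 1640 with 10% heat-inactivated FBS were seeded at 25000 cells/well, incubated overnight at 37° C, 5% CO2, then treated with increasing compound concentrations for 72 hours. Viability was read as absorbance at 490 nm after 2˜4 hours with CellTiter96 AQueous One reagent.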

[2] = tested on: phosphorylation of FLT3 and its down-stream effector STAT5; assay: Western blotting of p-FLT3 and p-STAT5 in MV4-11 cells; format: cell-based; conditions: Homo sapiens; at 30 nM treatment, 3 hours, FLT3-ITD positive MV4-11 leukemia cells; read-out: inhibition activity against phosphorylation of FLT3 and its down-stream effector STAT5
Method in brief: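 MV4-11 cells held overnight in IMDM with 0.1% FBS, then 3 million cells treated with compound for 3 h. Whole lysates immunoblotted for p-FLT3 (Tyr-591), p-STAT5 (Tyr-694) and actin. Band intensities at 30 nM compared to DMSO control; % inhibition = (1 − relative intensity) × 100.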

[3] = molecular target: T1, FLT3 kinase (Homo sapiens, UniProt P36888); assay: FLT3 kinase assay (AlphaScreen); format: biochemical; conditions: read-out: Ranking of IC50 values, FLT3
T1 construct: purchased SignalChem
T1 sequence (P36888 27-993): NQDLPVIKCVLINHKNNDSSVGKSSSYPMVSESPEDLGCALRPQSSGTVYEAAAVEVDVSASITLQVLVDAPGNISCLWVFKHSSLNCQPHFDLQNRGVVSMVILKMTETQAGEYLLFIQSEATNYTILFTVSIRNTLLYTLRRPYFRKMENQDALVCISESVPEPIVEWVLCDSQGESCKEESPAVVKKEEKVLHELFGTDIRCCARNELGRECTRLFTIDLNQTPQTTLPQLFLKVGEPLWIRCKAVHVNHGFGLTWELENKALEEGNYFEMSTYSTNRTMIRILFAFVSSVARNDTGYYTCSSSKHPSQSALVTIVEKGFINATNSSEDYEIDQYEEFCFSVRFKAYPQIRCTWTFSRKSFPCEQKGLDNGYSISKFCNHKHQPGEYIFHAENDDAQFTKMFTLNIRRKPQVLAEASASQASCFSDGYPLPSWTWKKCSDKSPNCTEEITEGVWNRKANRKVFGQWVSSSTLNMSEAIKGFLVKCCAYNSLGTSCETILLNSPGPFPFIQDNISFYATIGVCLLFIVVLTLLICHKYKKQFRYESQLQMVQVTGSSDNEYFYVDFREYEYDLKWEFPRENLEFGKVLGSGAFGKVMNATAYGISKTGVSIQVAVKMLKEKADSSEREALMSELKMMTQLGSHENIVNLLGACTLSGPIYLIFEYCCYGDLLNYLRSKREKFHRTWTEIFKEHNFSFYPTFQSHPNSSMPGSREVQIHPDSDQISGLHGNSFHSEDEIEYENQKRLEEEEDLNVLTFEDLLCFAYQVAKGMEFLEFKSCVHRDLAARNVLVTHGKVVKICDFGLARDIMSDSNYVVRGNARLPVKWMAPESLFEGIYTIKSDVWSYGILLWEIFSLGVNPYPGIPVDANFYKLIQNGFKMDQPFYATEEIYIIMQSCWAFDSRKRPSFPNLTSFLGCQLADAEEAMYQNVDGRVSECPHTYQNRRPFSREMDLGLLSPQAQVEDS
Method in brief: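 AlphaScreen detection of biotin-poly(Glu4:Tyr1) phosphorylation by 1.5 ng recombinant FLT3 (10 μM ATP, pH 7.0 MOPS, 10 mM MgCl2; 30 °C, 30 min, EDTA quench). IC50 values derived from serially diluted compound tested in duplicate.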

| IC50 [1] [nM] | IC50 [3] [nM] | Structure (SMILES) | inhibition at 0.03 µM [2] [%] |
| --- | --- | --- | --- |
| 30 to 100 | – | COc1ccc(-c2cc3c(s2)Cc2c(-c4ccc5[nH]ncc5c4)n[nH]c2-3)cn1 [Compound 1, 3-(1H-indazol-5-yl)-6-(6-methoxypyridin-3-yl)-1,4-dihydrothieno[2′,3′:4,5] cyclopenta[1,2-c]pyrazole] | > 50 |
| 30 to 100 | – | COc1ccc(-c2cc3c(s2)Cc2c(-c4ccc5cn[nH]c5c4)n[nH]c2-3)cn1 [Compound 2, 3-(1H-indazol-6-yl)-6-(6-methoxypyridin-3-yl)-1,4-dihydrothieno[2′,3′:4,5] cyclopenta[1,2-c]pyrazole] | > 50 |
| < 30 | – | Nc1ccc(-c2cc3c(s2)Cc2c(-c4ccc5cn[nH]c5c4)n[nH]c2-3)cn1 [Compound 3, 5-(3-(1H-indazol-6-yl)-1,4-dihydrothieno[2′,3′:4,5]cyclopenta[1,2-c]pyrazol-6-yl)pyridin-2-amine] | > 50 |
| 30 to 100 | – | Cc1ccc(-c2cc3c(s2)Cc2c(-c4ccc5cn[nH]c5c4)n[nH]c2-3)cn1 [Compound 30, 3-(1H-indazol-6-yl)-6-(6-methylpyridin-3-yl)-1,4-dihydrothieno[2′,3′:4,5] cyclopenta[1,2-c]pyrazole] | > 50 |
| 30 to 100 | – | Cc1ccc(-c2cc3c(s2)Cc2c(-c4ccc5[nH]ncc5c4)n[nH]c2-3)cn1 [Compound 36, 3-(1H-indazol-5-yl)-6-(6-methylpyridin-3-yl)-1,4-dihydrothieno[2′,3′:4,5] cyclopenta[1,2-c]pyrazole] | > 50 |
| < 30 | – | Nc1ccc(-c2cc3c(s2)Cc2c(-c4ccc5[nH]ncc5c4)n[nH]c2-3)cn1 [Compound 40, 5-(3-(1H-indazol-5-yl)-1,4-dihydrothieno [2′,3′:4,5]cyclopenta [1,2-c]pyrazol-6-yl) pyridin-2-amine] | > 50 |
| 30 to 100 | – | Cn1ncc2ccc(-c3n[nH]c4c3Cc3sc(-c5ccc(CN6CCOC6=O)cc5)cc3-4)cc21 [Compound 62, 3-(4-(3-(1-methyl-1H-indazol-6-yl)-1,4-dihydro-thieno[2′,3′:4,5]cyclopenta [1,2-c]pyrazol-6-yl)benzyl)oxazolidin-2-one] | > 50 |
| < 30 | < 1 | CN1CCN(Cc2ccc(-c3cc4c(s3)Cc3c(-c5ccc6cn[nH]c6c5)n[nH]c3-4)cc2)CC1 [Compound 83, 3-(1H-indazol-6-yl)-6-(4-((4-methylpiperazin-1-yl)methyl)phenyl)-1,4-dihydrothieno[2′,3′:4,5] cyclopenta[1,2-c]pyrazole] | > 50 |
| < 30 | < 1 | CN1CCN(Cc2ccc(-c3cc4c(s3)Cc3c(-c5ccc6cnn(C)c6c5)n[nH]c3-4)cc2)CC1 [Compound 84, 3-(1-methyl-1H-indazol-6-yl)-6-(4-((4-methylpiperazin-1-yl)methyl)phenyl)-1,4-dihydrothieno [2′,3′:4,5]cyclopenta [1,2-c]pyrazole] | > 50 |
| 30 to 100 | 1 to 10 | Cn1nnc2ccc(-c3n[nH]c4c3Cc3sc(-c5ccc(CN6CCOCC6)cc5)cc3-4)cc21 [Compound 89, 4-(4-(3-(1-methyl-1H-benzo[d][1,2,3]triazol-6-yl)-1,4-dihydrothieno [2′,3′:4,5]cyclopenta [1,2-c]pyrazol-6-yl)benzyl)morpholine] | > 50 |
| < 30 | < 1 | Cn1ncc2ccc(-c3n[nH]c4c3Cc3sc(-c5ccc(N)nc5)cc3-4)cc21 [Compound 92, 5-(3-(1-methyl-1H-indazol-6-yl)-1,4-dihydro-thieno[2′,3′:4,5]cyclopenta [1,2-c]pyrazol-6-yl) pyridin-2-amine] | > 50 |
| < 30 | < 1 | CN(C)Cc1ccc(-c2cc3c(s2)Cc2c(-c4ccc5cnn(C)c5c4)n[nH]c2-3)cc1 [Compound 94, N,N-dimethyl-1-(4-(3-(1-methyl-1H-indazol-6-yl)-1,4-dihydrothieno [2′,3′:4,5]cyclopenta [1,2-c]pyrazol-6-yl)phenyl)methanamine] | > 50 |
| < 30 | – | Cn1ncc2ccc(-c3n[nH]c4c3Cc3sc(-c5ccc(CN6CCNCC6=O)cc5)cc3-4)cc21 [Compound 101, 1-(4-(3-(1-methyl-1H-indazol-6-yl)-1,4-dihydro-thieno[2′,3′:4,5]cyclopenta [1,2-c]pyrazol-6-yl)benzyl)piperazin-2-one] | > 50 |
